In patent publication US20070042056A1, “Anti-stress agent” (priority 2003, published 2007):

Assays:
ddy male mice = assay: Enhancing activity on pentobarbital-induced sleep (duration of the sleeping time); type: in vivo
Protocol: (§1) As a test animal, ddy male mice (8-week age) were purchased from Shimizu Laboratory Supplies Co., Ltd., pre-bred for one week and used in the experiment. Each five of the mice were bred in a polyisopentene cage (manufactured by Clea Japan. Inc.) in a breeding chamber where the breeding conditions were set at room temperature of 23±2° C., humidity of 55±5%, ventilation frequency of 12 to 15/hour (all fresh air ventilation), and lighting hours of 12 hours/day (from 7 a.m. to 7 p.m.). The mice were fed solid feed CE-2 (Clea Japan Inc.) and were allowed free access to water.
1-Octen-3-ol dissolved in olive oil was orally administered to a mouse at a dose of 20 or 100 mg/kg. In each group, 8 mice were used. Thirty minutes later, pentobarbital dissolved in physiological saline was intraperitoneally administered at a dose of 50 mg/kg, and duration of the sleeping time was measured. The sleeping time was defined as the time period from the loss of righting reflex until its recovery.
The experimental results shown in FIG. 3 are expressed by average±standard error, and Student t-test was used in a significant difference test.
as §1, with “Co.,” for “Co., Ltd.,”, “one week,” for “one week”, “air ventilation)” for “air ventilation),”, “12 hours a day” for “12 hours/day”, “(Clea Japan.” for “(Clea Japan”
A mouse was made to aspirate cis-jasmone and methyl jasmonate diluted to 0.1% in an exposure box until the completion of the experiment. In each group, 5 mice were used. Thirty minutes after initiation of aspiration, pentobarbital dissolved in physiological saline was intraperitoneally administered at a dose of 50 mg/kg, and duration of the sleeping time was measured. […]

GABA receptor [1] = assay: In vitro GABA receptor-activating activity, Xenopus oocyte expressing GABA receptor, voltage clamp; type: cell-based, rat; conditions: for GABA response to GABA receptor, relative value of inhibitory potential vs GABA only (set at 100%): GABA 5 μM
Protocol: As an experimental material, an oocyte of Xenopus was used. A rat-derived GABA receptor mRNA was injected into the nucleus of an oocyte to express GABA receptor on the surface of the egg. The oocyte was cultured in a normal Ringer's solution for frog (115 mM NaCl, 1 mM KCl, 1.8 mM CaCl2, 5 mM Tris, pH 7.2). Using the resulting oocyte, inhibitory potential of GABA (10 μM) and inhibitory potential of a mixed solution of GABA (10 μM) and the below mentioned sample were measured. Generation of inhibitory potential was measured by voltage clamp method using a voltage clamping amplifier (CEZ-1100; manufactured by NIHON KODEN CORPORATION).
As a sample, the following 9 kinds of aroma components contained in coffee or teas were used in a concentration of 2 μl/ml. Samples used are as follows: 2-methyl-3-buten-2-ol (expressed by 2-M3BOL in FIG. 1), 3-methyl-2-buten-1-ol (expressed by 3-M2BOL in FIG. 1), 1-penten-3-ol (expressed by 1-POL in FIG. 1), (E)-2-hexen-1-ol (expressed by HXOL in FIG. 1), 1-octen-3-ol (expressed by 1-OCOL in FIG. 1), sotolone (expressed by STOL in FIG. 1), 2,4-dimethylstyrene (expressed by 2,4-DMS in FIG. 1), benzothiazole (expressed by BZT in FIG. 1) and 2,3,5-trimethylphenol (expressed by 2,3,5-TEP in FIG. 1). The aforementioned samples used in the experiment were commercially available products. That is, sotolone manufactured by Ogawa & Co., Ltd. and other compounds manufactured by Tokyo Kasei Co., Ltd. were used.
As an index, enhancing activity of the sample on inhibitory potential induced by GABA was used. The results are expressed by % increase of the inhibitory potential when GABA and a sample were used in combination, relative to the inhibitory potential generated when only GABA (0.25 μM) was added (set at 100%).
Dose dependency of 1-octen-3-ol which had been recognized to have a strong activity in Example 1 was studied. The experimental procedures were entirely the same as those of Example 1. The concentration of GABA was 5 μM, and the concentration of 1-octen-3-ol was 0.3 to 1 mM. […] The results shown in FIG. 2 are expressed by the relative value of the inhibitory potential when GABA and 1-octen-3-ol were used in combination, compared to the inhibitory potential generated when only GABA (5 μM) was added (set at 100%).
As an experimental material, an oocyte of Xenopus was used. A rat-derived GABA receptor mRNA was injected into the nucleus of an oocyte to express GABA receptor on the surface of an egg. The oocyte was cultured in a normal Ringer's solution for frog (115 mM NaCl, 1 mM KCl, 1.8 mM CaCl2, 5 mM Tris, pH 7.2). Generation of the inhibitory potential induced by GABA (0.25 μM) was measured by voltage clamp method using a voltage clamping amplifier (CEZ-1100; manufactured by Nihon Koden corporation).
As samples, the below-mentioned 4 kinds of aroma components of oolong tea were used in a concentration of 0.5 mM. The samples used are as follows: cis-jasmone, methyl jasmonate, jasmine lactone and linalool oxide.
Dose dependency of cis-jasmone and methyl jasmonate which had been recognized to have a strong activity in Example 4 was studied. The experimental procedures were entirely the same as those of Example 4. The concentration of GABA was 5 μM, and the concentrations of cis-jasmone and methyl jasmonate were 0.2 to 1 mM. […] The results shown in FIG. 5 are expressed by the relative value of the inhibitory potential when GABA and cis-jasmone and methyl jasmonate were used in combination compared to the inhibitory potential generated when only GABA (5 μM) was added (set at 100%).

rat = conditions: cited from earlier work; for development of gastric ulcer: cold-restraint stress (4° C., 2 hours), intraventricular administration
GABA receptor [2] = conditions: Biosci. Biotechnol. Biochem., 63, 743-748, 1999; cited from earlier work
[3] = 1998-1999 Scientific Research Subsidy Research Outcome Report; cited from earlier work
[4] = Example 6, FIG. 6, aspiration of sample diluted to 0.1% in exposure box, pentobarbital 50 mg/kg i.p. after 30 min
[5] = Example 4, FIG. 4, sample 0.5 mM, GABA 0.25 μM
[6] = Example 5, FIG. 5, sample 0.2 to 1 mM

In the case of `C=CC(O)CCCCC` (centres unmarked) [1-octen-3-ol], the “duration of the sleeping time induced by pentobarbital” value (“duration of the sleeping time induced” for short) (ddy male mice; Example 3, FIG. 3, orally 20 or 100 mg/kg in olive oil, 30 min before pentobarbital 50 mg/kg i.p.) is reported as “extended duration of the sleeping time induced by pentobarbital in a dose dependent manner”, the “enhancing activity of the sample on inhibitory potential induced by GABA” value (GABA receptor [1]; Example 1, FIG. 1, sample 2 μl/ml, GABA 10 μM / 0.25 μM) is reported as “strong activity to enhance the response” and the “GABA response to GABA receptor, relative value of inhibitory potential vs GABA only (set at 100%)” value (GABA receptor [1]; Example 2, FIG. 2, 1-octen-3-ol 0.3 to 1 mM) is reported as “up to 400%”.
For `NCCCC(=O)O` [GABA], the “development of gastric ulcer” value (rat) is given as “suppressed in a dose dependent manner”.
For `NCc1cc(=O)[nH]o1` [Muscimol], the “development of gastric ulcer” value (rat) is given as “suppressed in a dose dependent manner”.
For `CN1CCc2cc3c(cc2[C@H]1[C@@H]1OC(=O)c2c1ccc1c2OCO1)OCO3` [bicuculine], the “effect on the inhibitory effect of GABA on stress ulceration” value (rat; cold-restraint stress, bicuculine 40 μg) is given as “diminishes the inhibitory effect of GABA on stress ulceration”.
In the case of `CC/C=C\CC1=C(C)CCC1=O` [cis-jasmone], the “duration of the sleeping time induced” value (ddy male mice; [4]) is reported as “significantly extended duration of the sleeping time”, the “enhancing activity of the sample on inhibitory potential induced by GABA” value (GABA receptor [1]; [5]) is reported as “activity to enhance the response” and the “GABA response to GABA receptor, relative value of inhibitory potential vs GABA only (set at 100%)” value (GABA receptor [1]; [6]) is reported as “up to 200%”.
For `CCCCCCO` [hexanol], the GABA receptor-activating activity (GABA receptor [2]) is listed as “has GABA receptor-activating activity” and the stress relaxing activity [3] is listed as “stress relaxing activity”.
In the case of `CC/C=C\CC1C(=O)CCC1CC(=O)OC` (centres unmarked) [methyl jasmonate], the “duration of the sleeping time induced” value (ddy male mice; [4]) is reported as “significantly extended duration of the sleeping time”, the “enhancing activity of the sample on inhibitory potential induced by GABA” value (GABA receptor [1]; [5]) is reported as “activity to enhance the response” and the “GABA response to GABA receptor, relative value of inhibitory potential vs GABA only (set at 100%)” value (GABA receptor [1]; [6]) is reported as ≤ 300%.
